Key:
[1] = target: T1, FGFR1 (Homo sapiens, UniProt P11362); assay: Inhibition against receptor tyrosine kinase activity (HTRF), FGFR1; assay type: biochemical; conditions: His6-FGFR1 cytoplasmic domain, biotin-poly(GT), HTRF; read-out: FGFR1 kinase IC50
T1 construct: made in house; host or cells: Sf9 insect cells, baculovirus (pFastBacHis), by the same method as VEGFR2
Description: This assay is used to determine inhibition of a test substance on tyrosine kinase activity. DNA coding for the cytoplasmic domain of VEGFR2 is obtained by total cDNA synthesis (Edwards M, International Biotechnology Lab 5(3), 19-25, 1987) or by cloning. Expression in an appropriate expression system can produce a polypeptide with tyrosine kinase activity. […] For VEGFR2 (GenBank Accession No. L04947), the 1.7 kb DNA fragment described by Terman et al. (Oncogene, 6(9), 1677-1683, 1991), coding for the cytoplasmic domain, beginning with lysine 791 and including the termination codon, was isolated from a human placental cDNA library (purchased from Clontech Laboratories, Inc.) and cloned in a Baculovirus expression vector (pFastBacHis, purchased from GIBCO BRL). The recombinant construct was transfected into insect cells (Spondoptea frugiperda9 (Sf9)) to prepare a recombinant Baculovirus. (Instructions for preparation and use of recombinant Baculovirus may be found in standard texts, such as “Bac-To-Bac Baculovirus Expression System” (GIBCO BRL).) The cytoplasmic fragment starting from lysine 398 (FGFR1, GenBank Accession No. X52833), the cytoplasmic fragment starting from lysine 558 (PDGFRβ, GenBank Accession No. M21616) or the cytoplasmic fragment starting from lysine 974 (HGFR, GenBank Accession No. J02958) may be cloned and expressed by the same method for use in assays for other tyrosine kinases. EGFR was purchased from Sigma Co. (Product No. E-2645).
For expression of the VEGFR2 tyrosine kinase, Sf9 cells were infected with the VEGFR2 recombinant virus and collected after 48 hours. The collected cells were rinsed with ice-cooled phosphate buffered saline (PBS) and then resuspended using 20 ml of ice-cooled Lysis Buffer (50 mM Tris-HCl (pH 8.5), 5 mM 2-mercaptoethanol, 100 mM KCl, 1 mM phenylmethylsulfonyl fluoride, 1% (v/v) NP-40) per 1.5×10^8 cells. The suspension was centrifuged at 12,000 rpm for 30 minutes at 4° C. and the supernatant was obtained. The supernatant was added to a Ni-NTA agarose column (3 ml, purchased from Qiagen) equilibrated with Buffer A {20 mM Tris-HCl (pH 8.5), 5 mM 2-mercaptoethanol, 500 mM KCl, 20 mM imidazole, 10% (v/v) glycerol}. The column was washed with 30 ml of Buffer A, and then with 6 ml of Buffer B {20 mM Tris-HCl (pH 8.5), 5 mM 2-mercaptoethanol, 1M KCl, 10% (v/v) glycerol}, and finally with 6 ml of Buffer A. After washing, it was eluted with 6 ml of Buffer C {20 mM Tris-HCl (pH 8.5), 5 mM 2-mercaptoethanol, 100 mM KCl, 100 mM imidazole, 10% (v/v) glycerol}. The eluate was placed on a dialysis membrane (purchased from Spectrum Laboratories) and dialyzed with a dialysis buffer {20 mM Tris-HCl (pH 7.5), 10% (v/v) glycerol, 1 mM dithiothreitol, 0.1 mM Na3VO4, 0.1 mM EGTA}. After dialysis, it was supplied for SDS-electrophoresis, and the recombinant protein (His6-VEGFR2, cytoplasmic domain of VEGFR2 fused with 6 histidine residues at the N-terminus) detected at a molecular weight of approximately 100 kDa with Coumassie Brilliant Blue staining was assayed using BSA (bovine serum albumin, purchased from Sigma Co.) as the standard substance, and stored at −80° C. until use. Using the same method for the cytoplasmic domains of FGFR1, PDGFRβ and HGFR yielded respective recombinant proteins fused with 6 histidine residues at the N-terminal (His6-FGFR1, His6-PDGFRβ or His6-HGFR).
The tyrosine kinase reaction was conducted as follows. In the case of VEGFR2, for example, 10 μl of a kinase reaction solution {200 mM Hepes (pH 7.4), 80 mM MgCl2, 16 mM MnCl2, 2 mM Na3VO4}, 250 ng of biotin-bound poly(Glu4:Tyr1) (biotin-poly(GT), purchased from CIS Diagnostics Co.) (6 μl of a 15-fold dilution with distilled water), 15 ng of His6-VEGFR2 (10 μl of a 240-fold dilution with 0.4% BSA solution) and the test substance dissolved in dimethyl sulfoxide (4 μl of a 100-fold dilution with 0.1% BSA solution) were added into each well of a 96-well round-bottom plate (NUNC Co., Product No. 163320), to a total of 30 μl. […]

[2] = system: KP-1/VEGF cells; assay: Antitumor activity on KP-1/VEGF cells in subcutaneous xenograft models; assay type: in vivo, mouse; conditions: oral twice a day, 2 weeks (5 days per week), Balb/c (nu/nu) mice
Protocol: VEGF high-expressing pancreatic cancer cells (KP-1/VEGF) suspended in PBS at a concentration of 1×10^7 cells/ml were transplanted under the right flank skin of 6-week-old female Balb/c (nu/nu) mice in a volume of 0.1 ml. When the tumor volume reached approximately 100 mm^3, the test substance was orally administered twice a day over a period of 2 weeks with a schedule of 5 days per week. The test substance was suspended in 0.5% methyl cellulose for an administered volume of 0.1 ml/10 g body weight. The tumor size was measured twice a week using a micrometer caliper. The tumor volume was determined by measuring the long and short diameters of the tumor with a micrometer caliper, and calculating ½×(long diameter×short diameter×short diameter). The experiment was conducted using 10 mice in the control (solvent-administered) group and 5 mice in each test substance-administered group.

T1 sequence (P11362 398-822 limits assumed): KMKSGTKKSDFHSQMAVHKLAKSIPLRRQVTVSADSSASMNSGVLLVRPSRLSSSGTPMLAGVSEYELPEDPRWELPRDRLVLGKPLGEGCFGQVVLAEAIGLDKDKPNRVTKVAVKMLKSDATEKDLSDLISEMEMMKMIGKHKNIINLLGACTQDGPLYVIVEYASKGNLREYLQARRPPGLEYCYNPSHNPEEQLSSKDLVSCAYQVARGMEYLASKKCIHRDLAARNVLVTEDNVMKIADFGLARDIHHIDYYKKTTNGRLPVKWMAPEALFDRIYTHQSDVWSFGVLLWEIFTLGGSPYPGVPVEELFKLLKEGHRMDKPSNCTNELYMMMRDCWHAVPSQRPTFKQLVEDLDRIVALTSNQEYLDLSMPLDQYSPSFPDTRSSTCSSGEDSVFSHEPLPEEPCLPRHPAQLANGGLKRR

Row | Compound | IC50 [1] [nM] | proportion of the tumor volume after administering test substance to that of control ([2]; 6 mg/kg/day) [%] | proportion of the tumor volume after administering test substance to that of control ([2]; 20 mg/kg/day) [%] | proportion of the tumor volume after administering test substance to that of control ([2]; 60 mg/kg/day) [%] | proportion of the tumor volume after administering test substance to that of control ([2]; 200 mg/kg/day) [%]
1 | CNC(=O)n1ccc2cc(Oc3ccnc(NC(=O)N4CCC(O)CC4)c3)ccc21 [Example 39, N1-Methyl-5-(2-((4-hydroxypiperidino)carbonyl)amino-4-pyridyl)oxy-1H-1-indolecarboxamide] | 6.3 | – | – | – | –
2 | CNC(=O)n1ccc2cc(Oc3ccnc(NC(=O)N4CCC(C)(O)CC4)c3)ccc21 [Example 41, 5-(2-(((4-Hydroxy-4-methylpiperidin-1-yl)carbonyl)amino)pyridin-4-yloxy)-1H-1-indole-1-carboxylic acid methylamide] | 3.2 | – | – | – | –
3 | CNC(=O)n1ccc2cc(Oc3ccnc(NC(=O)N4CCC(N5CCCC5)CC4)c3)ccc21 [Example 46, N1-Methyl-5-(2-(((4-(pyrrolidin-1-yl)piperidin-1-yl)carbonyl)amino)pyridin-4-yloxy)-1H-1-indolecarboxamide] | 12 | 77.7 | 59.3 | 60.0 | 36.2
4 | CNC(=O)n1ccc2cc(Oc3ccnc(NC(=O)N4CCC(N5CCCCC5)CC4)c3)ccc21 [Example 47, N1-Methyl-5-(2-(((4-(piperidin-1-yl)piperidin-1-yl)carbonyl)amino)pyridin-4-yloxy)-1H-1-indolecarboxamide] | 21 | 80.5 | 64.6 | 45.3 | 33.6
5 | CNC(=O)n1ccc2cc(Oc3ccnc(NC(=O)N4CCOCC4)c3)ccc21 [Example 53, N4-(4-(1-(Methylamino)carbonyl-1H-5-indolyl)oxy-2-pyridyl)-4-morpholinecarboxamide] | 2.1 | 73.1 | 60.4 | 48.4 | 37.9
